# “And” between values parts separate entries of the source, which are not always exact repeats. Equal entries are not always repeated. “Also recorded” adds a separate entry of the source.
# How the values were obtained:
# [1] = Weight increase in growing male rats, experiment 2 (10 days s.c.); assay type: in vivo, Male Wistar rats
# Protocol: (§1) Animals: Male Wistar rats were kept in group cages, with three animals per cage, from delivery and throughout the period of experiments. The individual animals were marked so that they could be identified throughout the experiment duration. The animals weight an average of 152 g upon arrival. A reversed light dark (12:12 h) cycle was used with the dark period onset at 0600 hrs. Altogether fifty-six (56) rats were used in this study (experiment 1+2). The animals were delivered from the breeder Taconic (Denmark). The study protocol was approved by the Regional Ethics Committee of Umea University, Sweden.
# (§2) Feeding: Standard chow and water were available ad libitum. A reversed 12-h dark-light cycle with lights off at 10.00 am and lights on at 22.00 pm was used. For identification, the rats were marked with a permanent marker on the tail. To avoid the endogenous allopregnanolone fluctuations that are present in the estrous cycle of female rats, male rats were chosen (Frye et al. 2000). The animals were allowed to acclimatize for at least 3 weeks before start of the experimental sessions. During this period, the rats were repeatedly handled and allowed habituation to the new environment and to all new procedures, to minimize stress during the experiments.
# (§3) After 14 days of triad housing, handling and injection training of the animals, the animals were treated for 5 days with IV injections in experiment 1 and 10 days with a daily subcutaneous injection of the assigned treatment in experiment 2 (Table 3 and 4). The injections were given at 08.00 every morning. The animals were weighed the day before onset of the treatment and at the last day of injection i.e. on the 5th or 10th day of treatment. Weight was taken at the time of the last injection. […] The results are shown in FIG. 2 (experiment 1) and FIG. 3 (experiment 2), respectively.
# GABAA receptor = conditions: table 3 in WO 09/142594; cited from earlier work
# [2] = Weight increase in growing male rats, experiment 1 (5 days IV); assay type: in vivo, Male Wistar rats
# Protocol: as §1, §2, §3
# [3] = biological target: T1, GABAA receptor subtype α1β2γ2 (Homo sapiens, UniProt P14867+P47870); experiment: Patch clamp on GABAA receptor subtype α1β2γ2, essentially as described in Example 2; assay type: cell-based
# T1 construct: expressed in transfected cells
# [4] = biological target: T2, human α3β3γ2L GABAA receptor subtype (Homo sapiens, UniProt P28472+P34903); experiment: Whole-cell patch clamp (Dynaflow) on HEK-293 cells expressing the GABAA receptor α3β3γ2L subtype; assay type: cell-based; conditions: for 100 μM GABA mediated current response, area under curve, Mean ± SEM: 1 μM steroid + 100 μM GABA, relative to 100 μM GABA (set as 0%); for reduction (block) of the THDOC enhanced effect / effect on GABAs own effect on current response / reduction of the GABA effect: 100 μM GABA; for reduction (block) of the THDOC enhanced effect / reduction of the GABA effect: stated as size of reduction; for activation of the receptor / own effect in absence of GABA: steroid alone, in absence of GABA and/or THDOC
# T2 construct: expressed in transfected cells; host or cells: HEK-293 cells (wild-type cells obtained from Pasteur Institute, Paris), permanently transfected
# Protocol: Aim: To investigate the effect of 3α-ethynyl-3β-hydroxy-5α-androstan-17-methoxime and 3α-ethyl-3β-hydroxy-5α-androstan-17-oxime, respectively, on the GABAA receptor function. Experiments were performed both in absence and in presence of the GAMS tetrahydrodeoxycorticosterone (THDOC), in the absence and presence of GABA. In these tests the protocol was optimized to be similar to the physiological conditions in the synaptic cleft.
# Cell culture: Wild-type HEK-293 cells passage 4 (obtained from Pasteur Institute, Paris, France), permanently transfected with cDNA to express the human α3β3γ2L GABAA receptor subtype, were seeded in cell bind culture flasks, grown and maintained at the temperature of +37° C., with a gas mixture of 5% CO2 in the cell incubator. The transfected cells were used for patch-clamp experiments minimum one passages after defrosting and 3-5 days after seeding. The α3β3γ2L cells were seeded for maximal 15 times.
# Electrophysiological recordings: Whole cell patch technique was used to record whole-cell currents from the cells. Patch electrodes were pulled from 1.5 mm O.D., 0.86 mm I.D. borosilicate capillary glass without filament. […] After compensation for liquid junction potential a steady holding potential of −17 mV was used in all experiments. The cells were added to the chip (see below) and kept in EC solution (see above). EC solution with or without steroids and GABA were applied by the Dynaflow™ system (see below). All experiments were performed at room temperature (21-23° C.).
# Dynaflow™ system: Dynaflow™ system with Resolve chips was used for all patch-clamp experiments including steroids. The Resolve chip consists of a glass chip enclosed by a PEEK plastic top part and a supporting plastic bottom part. Both wells and channels are glass coated. The channel width is 150 μm and the height 50 μm. The well volume is 150 μL. Run time at the flow rate of 26 μL/min was 90 min. The pump settings were as follows: BD Plastikpak™ 2 mL syringe with inner diameter of 8.1 mm was used. The syringe pump flow rate for Resolve chip was 26 μL/min.
# The Resolve chip allows synchronized control of switching between 16 experimental solutions. Laminar flow at each solution outlet of the microfluidic chip prevents mixing, and a computer-controlled stage motor is used to move the chip relative to the patch pipette, allowing for relatively rapid solution exchange around the membrane patch. PClamp 9.0 software, DigiData 1322A converter and AxonPatch 200B were used to generate command pulses and collect data. Clampfit 10.3, Prism 6.0 and excel were used for data analyzes.
# GABA and steroids: GABA was dissolved in EC-solution by ultrasound for about 20 minutes at maximal 40° C. to the concentration of 10 mM.
# THDOC was dissolved in ethanol 99.5% to the concentration of 0.2 mM and tested steroids dissolved in ethanol 99.5% to the concentration of 2 mM (with ultrasound). The final ethanol concentration was 0.1% in all end-solutions, including the wash solution (EC) and the solution with GABA alone. End-solutions are the solutions added into the wells of the chip.
# Protocol: The binding site of THDOC is in the […] region of the receptor. To achieve stable response, the cell was exposed to steroid (THDOC and/or steroid) 20 seconds before GABA application. The standard protocol as follow: 20 s preincubation of steoids (100 nM THDOC alone or in combination with one of 1 μM 3α-ethynyl-3β-hydroxy-5α-androstan-17-methoxime and 3α-ethyl-3β-hydroxy-5α-androstan-17-oxime), followed by 2 s application of 100 μM GABA±steroids (100 nM THDOC alone or in combination with one of 1 μM 3α-ethynyl-3β-hydroxy-5α-androstan-17-methoxime and 3α-ethyl-3β-hydroxy-5α-androstan-17-oxime). Washout time was 120 s.
# Steroid (3α-ethynyl-3β-hydroxy-5α-androstan-17-methoxime or 3α-ethyl-3β-hydroxy-5α-androstan-17-oxime)+THDOC, in absence of GABA, were therefore not analyzed. […]
# [5] = 1 mg/kg s.c. + 5 mg/kg progesterone + 10 μg/kg 17β-estradiol
# [6] = 2 mg/kg IV daily for 5 days, in 10% 2-Hydroxypropyl-β-cyclodextrin
# T2 sequence (P34903 29-492): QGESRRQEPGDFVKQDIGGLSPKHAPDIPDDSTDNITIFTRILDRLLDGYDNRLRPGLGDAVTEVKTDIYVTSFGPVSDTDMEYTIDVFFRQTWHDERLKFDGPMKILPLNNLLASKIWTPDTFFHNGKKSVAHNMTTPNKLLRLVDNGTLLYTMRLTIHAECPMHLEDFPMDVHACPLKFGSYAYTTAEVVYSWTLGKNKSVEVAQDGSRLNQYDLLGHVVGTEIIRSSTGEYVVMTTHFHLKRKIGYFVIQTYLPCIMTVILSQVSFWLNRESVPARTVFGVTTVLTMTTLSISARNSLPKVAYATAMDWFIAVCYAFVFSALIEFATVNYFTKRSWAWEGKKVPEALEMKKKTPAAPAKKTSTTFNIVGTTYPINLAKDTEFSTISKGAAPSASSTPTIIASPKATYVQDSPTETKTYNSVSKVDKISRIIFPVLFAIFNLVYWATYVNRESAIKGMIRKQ
# T2 sequence (P28472 26-473): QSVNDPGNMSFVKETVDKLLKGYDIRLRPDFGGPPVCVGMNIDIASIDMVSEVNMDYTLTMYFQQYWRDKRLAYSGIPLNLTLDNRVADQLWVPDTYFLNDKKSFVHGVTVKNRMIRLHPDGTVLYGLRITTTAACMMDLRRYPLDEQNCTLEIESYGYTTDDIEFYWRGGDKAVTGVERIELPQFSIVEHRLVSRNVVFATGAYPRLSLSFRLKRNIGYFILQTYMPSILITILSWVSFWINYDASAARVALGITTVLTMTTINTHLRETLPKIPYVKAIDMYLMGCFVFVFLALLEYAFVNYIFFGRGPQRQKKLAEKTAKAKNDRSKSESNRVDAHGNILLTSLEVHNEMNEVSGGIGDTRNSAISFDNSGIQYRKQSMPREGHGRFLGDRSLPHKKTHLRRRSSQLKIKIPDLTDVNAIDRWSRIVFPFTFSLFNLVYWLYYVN
# T2 sequence (P18507 40-475 partner): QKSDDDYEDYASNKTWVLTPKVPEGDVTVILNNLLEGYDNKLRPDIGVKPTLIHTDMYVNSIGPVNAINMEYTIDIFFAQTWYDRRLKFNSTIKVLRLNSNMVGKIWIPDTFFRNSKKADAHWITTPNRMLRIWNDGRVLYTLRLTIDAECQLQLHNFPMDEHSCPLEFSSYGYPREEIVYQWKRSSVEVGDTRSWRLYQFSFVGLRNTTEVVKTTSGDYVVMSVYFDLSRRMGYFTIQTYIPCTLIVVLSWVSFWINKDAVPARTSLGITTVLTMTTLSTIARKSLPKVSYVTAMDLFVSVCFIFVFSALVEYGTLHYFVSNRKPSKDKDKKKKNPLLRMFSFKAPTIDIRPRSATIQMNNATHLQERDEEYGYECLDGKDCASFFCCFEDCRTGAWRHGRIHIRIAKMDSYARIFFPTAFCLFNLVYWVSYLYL
# T1 sequence (P14867 28-456): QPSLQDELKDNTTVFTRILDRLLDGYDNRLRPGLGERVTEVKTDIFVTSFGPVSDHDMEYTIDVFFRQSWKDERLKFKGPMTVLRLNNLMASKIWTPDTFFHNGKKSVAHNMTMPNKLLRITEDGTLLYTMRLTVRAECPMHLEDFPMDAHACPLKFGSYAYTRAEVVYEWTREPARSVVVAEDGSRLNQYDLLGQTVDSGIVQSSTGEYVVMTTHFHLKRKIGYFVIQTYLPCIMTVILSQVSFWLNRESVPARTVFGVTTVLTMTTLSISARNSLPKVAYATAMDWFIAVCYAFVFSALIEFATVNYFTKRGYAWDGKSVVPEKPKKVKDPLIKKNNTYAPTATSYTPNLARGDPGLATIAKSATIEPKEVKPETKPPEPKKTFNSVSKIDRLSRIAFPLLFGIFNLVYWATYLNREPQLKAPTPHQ
# T1 sequence (P47870 25-512 limits assumed): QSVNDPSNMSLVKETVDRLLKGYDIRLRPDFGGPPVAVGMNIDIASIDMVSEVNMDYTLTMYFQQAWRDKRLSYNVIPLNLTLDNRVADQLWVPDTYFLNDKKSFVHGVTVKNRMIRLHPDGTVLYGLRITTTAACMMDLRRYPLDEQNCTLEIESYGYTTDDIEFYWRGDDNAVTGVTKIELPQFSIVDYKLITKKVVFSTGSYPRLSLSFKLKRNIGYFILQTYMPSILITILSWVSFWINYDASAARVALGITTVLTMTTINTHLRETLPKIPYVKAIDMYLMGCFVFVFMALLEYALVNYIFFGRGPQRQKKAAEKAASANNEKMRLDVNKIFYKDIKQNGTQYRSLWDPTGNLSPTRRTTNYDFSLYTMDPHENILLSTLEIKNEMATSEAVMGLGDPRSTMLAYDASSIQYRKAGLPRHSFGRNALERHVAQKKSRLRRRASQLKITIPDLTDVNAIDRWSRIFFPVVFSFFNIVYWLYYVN
# T1 sequence (P18507 40-475 partner): as the sequence (P18507 40-475 partner) above
smiles,measurement,setting,value
C#C[C@]1(O)CC[C@@]2(C)[C@@H](CC[C@@H]3[C@@H]2CC[C@]2(C)C(=O)CC[C@@H]32)C1 [3α-ethynyl-3β-hydroxy-5α-androstan-17-one],weight difference compared to vehicle,[1]; [5],-33 ± 4.4 g
same,weight difference versus E+P control rats,[1]; [5],-23.9 ± 4.4 g
same,weight difference versus E+P control rats,[1]; 5 mg/kg s.c. + 5 mg/kg progesterone + 10 μg/kg 17β-estradiol,-20.4 ± 5.2 g
same,weight difference after 10 days of treatment compared to vehicle,[1]; s.c.,over 20%
same,effect as a GAMSA or GAMS,GABAA receptor,no effect
same,Mean weight increase since arrival,[2]; [6],97.43 g
same,Mean weight increase since treatment start,[2]; [6],11.86 g
same,increase in weight compared to vehicle treated groups,"[2]; 2 mg/kg IV, 5 days",significantly lower
same,"Effect against GABAs agonistic effect, α1β2γ2",[3]; 1 μM steroid,−1.9 ± 2.4%
same,"Antagonism of 100 nM THDOC-enhancement, α1β2γ2",[3]; 1 μM steroid + THDOC,No effect
same,"Antagonism of 100 nM THDOC-enhancement, α3β3γ2","[4]; 1 μM steroid + THDOC, Table 6","−166 ± 19.9%,"
same,"Effect against GABAs agonistic effect, α3β3γ2","[4]; 1 μM steroid, Table 6","−46 ± 1.3%,"
"C#C[C@]1(O)CC[C@]2(C)C3CC[C@]4(C)/C(=N\OC)CCC4C3CC[C@H]2C1 (stereo partly drawn) [GR3053, 3α-ethynyl-3β-hydroxy-5α-androstan-17-methoxime]","100 μM GABA mediated current response, area under curve, Mean ± SEM",[4],−20 ± 2.1%
same,"100 μM GABA mediated current response, area under curve, Mean ± SEM",[4]; listed as 3α-ethynyl-3β-hydroxy-5α-androstan-17-methoxime,−20%
same,reduction (block) of the THDOC enhanced effect,"[4]; 1 μM steroid, 100 nM THDOC",> 100% and 190%
same,effect on GABAs own effect on current response,[4]; 1 μM steroid,some antagonistic effect; also recorded: partial antagonistic effect
same,reduction of the GABA effect,[4]; 1 μM steroid,20%
same,activation of the receptor / own effect in absence of GABA,[4],None
"CC[C@]1(O)CC[C@]2(C)C3CC[C@]4(C)/C(=N\O)CCC4C3CC[C@H]2C1 (stereo partly drawn) [GR3055, 3α-ethyl-3β-hydroxy-5α-androstan-17-oxime]","100 μM GABA mediated current response, area under curve, Mean ± SEM",[4],"−18 ± 3.4%,"
same,"100 μM GABA mediated current response, area under curve, Mean ± SEM",[4]; listed as 3α-ethyl-3β-hydroxy-5α-androstan-17-oxime,−18%
same,reduction (block) of the THDOC enhanced effect,"[4]; 1 μM steroid, 100 nM THDOC",57%
same,effect on GABAs own effect on current response,[4]; 1 μM steroid,partial antagonistic effect
same,reduction of the GABA effect,[4]; 1 μM steroid,18%
same,activation of the receptor / own effect in absence of GABA,[4],None
"C[C@]12CC[C@@H](O)C[C@@H]1CC[C@@H]1[C@@H]2CC[C@]2(C)[C@@H](C(=O)CO)CC[C@@H]12 [THDOC, 3α, 21-dihydroxy-5α-pregnan-20-one, reference compound]",activation of the α3β3γ2L GABAA receptor by THDOC alone,"[4]; 100 nM THDOC, in absence of GABA",did not activate

# Source: patent publication US20240383941A1, “3-ALPHA SUBSTITUTED 3-BETA-HYDROXY-17-OXIMATED ANDROSTANE COMPOUND FOR MODULATION OF THE ALPHA-3 SUBTYPE OF THE GABAA RECEPTOR” (priority 2021, published 2024)
